Patent publication US10620188B2, “Using impedance-based cell response profiling to identify putative inhibitors for oncogene addicted targets or pathways” (ACEA Biosciences, Inc., priority 2002, dated 2020)
Read-outs that look alike come from different tables or passages of the source.

Columns and labels:
SH-SY5Y = assay: Impedance-based TCRP of SH-SY5Y cells, mutant ALK (F1174L); type: cell-based, human; details: for TCRP (Cell Index response): 10 uM; for IC50: mutant ALK (F1174L), long-term (72 hours post compound treatment) CI
Excerpt: (§1) The cell index was normalized at time of compound addition.
The cell index (CI) was normalized at time of compound addition. […] DMSO was served as solvent control.
The cell index was normalized at time of compound addition. DMSO at the same dose was served as solvent control.
(§2) The cell index (CI) was normalized at time of compound addition.

H1993 = assay: Impedance-based TCRP of Met addicted H1993 cells (xCelligence); type: cell-based, human; details: for TCRP (Cell Index response): increasing concentrations; for IC50: read-out: IC50 (TCRP)
Description: as §1
Cells were treated with ACEA348 (0-10 uM) for 30 min.
as §2
The time-dependent cell response profiles (TCRP) were monitored prior to and after the compound addition using the xCelligence system (ACEA Biosciences/Roche applied sciences).
The Cell index was normalized against the cell index values at a time point just before compound addition. […] EC50 and IC50 of the Met inhibitor can be derived from the CI versus the corresponding log concentration of the inhibitor.

10T1/2 tva-H1047R = assay: Impedance-based TCRP of 10T1/2 tva-H1047R cells expressing human p110α (H1047R); type: cell-based, mouse; details: 10T1/2 tva-H1047R; serum starved; from 0 to 10 uM
Description: (§3) Cells were serum starved for 5 hour. The cell index was normalized at time of compound addition. At the indicated time point of treatment, increasing concentrations of PI103 (0-10 uM) was added to the cells and the cell responses were monitored.
as §2
A mouse fibroblast 10T1/2 expressing the cell-surface receptor TVA, which is specific for subgroup-A avian retroviruses was used. […] A549 is a human lung cancer cell line expressing wild-type p110α. T47D and BT20 are human breast cancer cell lines expressing mutant p110α (T47D) and p110α (P539R/H1047R), respectively.
(§4) Then the normal growth medium (10% FBS) was exchanged with medium containing 0% FBS. The cells were incubated for additional 5 hours before compound treatment. A PI3K inhibitor (PI103) at different concentrations in DMSO was added into wells following the incubation period. The cell status was monitored prior to and after the compound addition using xCelligence system (Roche applied sciences). […] Cell index of the cells treated with solvent DMSO control was used as baseline. The Cell index was normalized against the cell index values at a time point just before compound addition.

10T1/2 tva = assay: Impedance-based TCRP of control cell line 10T1/2 tva; set-up: species or system mouse; details: 10T1/2 tva control cell line; from 0 to 10 uM
Description: as §3, §2
A mouse fibroblast 10T1/2 expressing the cell-surface receptor TVA, which is specific for subgroup-A avian retroviruses was used.
as §4

H1975 [1] = assay: EGF-stimulated CI increase in H1975 cells; type: cell-based; details: Homo sapiens
A431 [2] = assay: EGF-stimulated CI increase in A431 cells; type: cell-based; details: Homo sapiens
Description: A431 cells were seeded at 20,000 cells per well of 96-well E-plate (Roche/ACEA) with 2% fetal bovine serum. The cells were continuously monitored using xCelligence system (Roche/ACEA). […] The cell index was normalized at time of EGF addition.
To further evaluate the efficacies of these EFGR inhibitors, we tested the inhibitory effect of these inhibitors on the EGF stimulated response using impedance-based technology (FIG. 15). In this experiment, A431 cells were seeded at 20,000 cells per well of 96-well E-plate (Roche/ACEA) with 2% fetal bovine serum. The cells were continuously monitored using xCelligence system (Roche/ACEA). […] The cell index was normalized at time of EGF addition.

H1975 [3] = assay: Impedance-based TCRP of H1975 cells, constitutive EGFR activation; type: cell-based; details: for IC50: Homo sapiens, read-out: IC50 (TCRP, constitutive activation)
Description: as §2
H1975 cells were seeded at 3,000 cells per well of 96-well E-plate (Roche/ACEA) in RPMI1640 medium with 1% fetal bovine serum. […] The cell index (CI) was normalized at time of compound addition.

A431 [4] = assay: Impedance-based TCRP of A431 cells, constitutive EGFR activation; type: cell-based; details: for IC50: Homo sapiens, read-out: IC50 (TCRP, constitutive activation)
Description: as §2
A431 cells were seeded into wells of 96 well E-plate devices (Roche applied sciences) with an initial seeding density of 20,000 cells per well and were pre-incubated in incubator with DMEM medium plus 2% FBS over night. […] DMSO at the same dose was served as solvent control. […] The IC50s derived from this experiment evaluate the inhibition of these inhibitors to this basal activation of EGFR (caused by dimerization without EGF stimulation)

PDGFRβ = target: T1, PDGFRβ (Rattus norvegicus, UniProt Q05030); assay: Western analysis of PDGFR signaling pathway in C6 cells; type: cell-based
T1 construct: endogenous in cells; host or cells: C6 rat glioma cells
T1 sequence (Q05030 32-1097): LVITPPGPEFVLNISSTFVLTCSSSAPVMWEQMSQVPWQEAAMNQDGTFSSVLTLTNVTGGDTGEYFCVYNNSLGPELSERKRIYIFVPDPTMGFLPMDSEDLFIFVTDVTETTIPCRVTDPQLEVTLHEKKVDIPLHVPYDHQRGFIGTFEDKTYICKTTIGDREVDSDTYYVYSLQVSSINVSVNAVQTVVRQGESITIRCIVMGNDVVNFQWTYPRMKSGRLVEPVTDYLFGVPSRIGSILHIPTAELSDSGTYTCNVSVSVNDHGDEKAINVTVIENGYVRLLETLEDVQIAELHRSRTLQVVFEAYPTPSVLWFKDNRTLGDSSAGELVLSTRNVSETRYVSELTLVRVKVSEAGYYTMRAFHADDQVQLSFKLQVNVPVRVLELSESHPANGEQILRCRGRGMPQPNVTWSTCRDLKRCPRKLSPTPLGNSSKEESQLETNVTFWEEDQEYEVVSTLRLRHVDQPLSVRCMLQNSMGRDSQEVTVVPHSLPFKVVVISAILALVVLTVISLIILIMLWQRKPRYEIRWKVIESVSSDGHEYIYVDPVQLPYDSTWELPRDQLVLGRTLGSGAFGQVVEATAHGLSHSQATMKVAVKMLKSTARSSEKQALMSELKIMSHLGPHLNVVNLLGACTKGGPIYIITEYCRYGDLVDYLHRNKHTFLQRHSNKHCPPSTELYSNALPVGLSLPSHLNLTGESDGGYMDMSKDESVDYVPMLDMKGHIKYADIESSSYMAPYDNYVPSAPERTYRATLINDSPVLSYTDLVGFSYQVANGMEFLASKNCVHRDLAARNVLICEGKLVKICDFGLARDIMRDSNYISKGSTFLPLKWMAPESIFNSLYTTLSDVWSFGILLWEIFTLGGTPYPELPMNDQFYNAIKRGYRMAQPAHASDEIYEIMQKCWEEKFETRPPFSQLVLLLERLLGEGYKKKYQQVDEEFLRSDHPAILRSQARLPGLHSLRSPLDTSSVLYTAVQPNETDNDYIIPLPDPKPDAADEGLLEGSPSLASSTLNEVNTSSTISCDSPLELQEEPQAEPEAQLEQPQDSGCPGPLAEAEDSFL

HCC827 = assay: Impedance-based TCRP of HCC827 cells, mutant EGFR (Del E746_A750); type: cell-based
Description: as §2
Kinase inhibitors including EGFR inhibitors at different concentrations in DMSO were added into wells following the incubation period. The cell status was monitored prior to and after the compound addition using xCelligence system (Roche applied sciences). The Cell index was normalized against the cell index values at a time point just before compound addition.

C6 = assay: Impedance-based TCRP of PDGFR addicted C6 glioma cells; type: cell-based, rat; details: for TCRP (Cell Index response): increasing concentrations; for IC50: Rattus norvegicus, read-out: IC50 (TCRP)
Description: as §2
Kinase inhibitors including PDGFR inhibitors at different concentrations in DMSO were added into wells following the incubation period. The cell status was monitored prior to and after the compound addition using xCelligence system (Roche applied sciences). […] The Cell index was normalized against the cell index values at a time point just before compound addition.
IC50 of the PDGFR inhibitor can be derived from the CI versus the corresponding log concentration of the inhibitor.

SK-MEL-28 = assay: Impedance-based TCRP of SK-MEL-28, b-Raf (V600E) addicted melanoma cells; type: cell-based, human
Description: as §1
(A) The impedance-based time-dependent cellular profiles (TCRPs) of SK-MEL28 in response to b-Raf inhibitor on xCelligence system (Roche/ACEA). […] The cell index (CI) was normalized at time of the compound addition. At the indicated time point of treatment (arrow), increasing concentrations of b-Raf inhibitor (from 0 to 10 uM) were added to the cells and the cell response was monitored. […] (B) EC50 of b-Raf derived from impedance-based TCRP.
as §2
Cell lines. […] The time-dependent cell response profiles (TCRP) were monitored prior to and after the compound addition using the xCelligence system (ACEA Biosciences/Roche applied sciences).
Kinase inhibitors including b-Raf inhibitors at different concentrations in DMSO were added into wells following the incubation period. The cell status was monitored prior to and after the compound addition using xCelligence system (Roche applied sciences). […] The Cell index was normalized against the cell index values at a time point just before compound addition.

[5] = NCI-H1975, H1975, inhibitor 1 hour, then EGF 30 ng/ml, Normalized Cell Index at 30 minutes after EGF, estimated, read-out: IC50 (TCRP, ligand stimulated)
[6] = C6, Long-term (96 hours post compound treatment) CI

| Compound | TCRP (Cell Index response) (H1993; H1993) | TCRP (Cell Index response) (10T1/2 tva-H1047R) | TCRP (Cell Index response) (10T1/2 tva) | other results |
| --- | --- | --- | --- | --- |
| COc1cc2ncnc(Nc3cccc(Cl)c3)c2cc1OC [AG1478] |  |  |  | TCRP (Cell Index response) (SH-SY5Y): None trigged a TCRP representative to that trigger by ALK inhibitors |
| O=c1[nH]c2ccccc2n1C1CCN(Cc2ccc(-c3nc4cc5[nH]cnc5cc4nc3-c3ccccc3)cc2)CC1 [AKT inhibitor VIII] | None of these inhibitors induced a TCRP similar to PF2341006 | cell index decreases in both the control cell line and H1047R cell line | cell index decreases in both the control cell line and H1047R cell line |  |
| Cn1c(=O)n(-c2ccc(C(C)(C)C#N)cc2)c2c3cc(-c4cnc5ccccc5c4)ccc3ncc21 [BEZ235] | None of these inhibitors induced a TCRP similar to PF2341006 | triggered 10T1/2-tva-H1047R specific cell index drop | not present in the control cell line 10T1/2-tva |  |
| CN(C)C/C=C/C(=O)Nc1cc2c(Nc3ccc(F)c(Cl)c3)ncnc2cc1O[C@H]1CCOC1 [BIBW2992] |  |  |  | IC50 (H1975 [1]; NCI-H1975, read-out: IC50 (TCRP, ligand stimulated)): ~200 nM |
| CN([C@@H](Cc1ccc(OS(=O)(=O)c2cccc3cnccc23)cc1)C(=O)N1CCN(c2ccccc2)CC1)S(=O)(=O)c1cccc2cnccc12 [CaM kinase inhibitor] |  | did not introduce significant cell index changes in either cell line | did not introduce significant cell index changes in either cell line |  |
| C=CC(=O)Nc1cc2c(Nc3ccc(F)c(Cl)c3)ncnc2cc1OCCCN1CCOCC1 [Canertinib] |  |  |  | IC50 (A431 [2]; A-431, read-out: IC50 (TCRP, ligand stimulated)): < 27 nM; TCRP (Cell Index response) (H1975 [3]; H1975, from 0 to 20 uM): dose-dependent short-term and long-term decrease in Cell Index; IC50 (H1975 [3]; NCI-H1975, 72 h): 396 nM; IC50 (H1975 [1]; [5]): ~150 nM; TCRP (Cell Index response) (A431 [4]; A431, from 0 to 20 uM): dose-dependent short-term and long-term decrease in Cell Index; IC50 (A431 [4]; A-431, 72 h): 357 nM |
| O=c1cc(CN2CCOCC2)occ1OCCCCCSc1ccnc2cc(C(F)(F)F)ccc12 [EHT1864] | None of these inhibitors induced a TCRP similar to PF2341006 |  |  |  |
| CC1=C(C(=O)Nc2cc3cn[nH]c3cc2F)C(c2ccc(C(F)(F)F)cc2)CC(=O)N1 (stereo not shown) [GSK429286] | None of these inhibitors induced a TCRP similar to PF2341006 |  |  |  |
| CNC(=O)c1c(F)cccc1Nc1nc(Nc2cc3c(cc2OC)CCN3C(=O)CN(C)C)nc2[nH]ccc12 [GSK1838705A] |  |  |  | IC50 (SH-SY5Y): 137 nM |
| O=C1Nc2ccc(I)cc2/C1=C/c1cc(Br)c(O)c(Br)c1 [GW5074] | None of these inhibitors induced a TCRP similar to PF2341006 | cell index decreases in both the control cell line and H1047R cell line | cell index decreases in both the control cell line and H1047R cell line |  |
| Cc1ccc(NC(=O)c2ccc(CN3CCN(C)CC3)cc2)cc1Nc1nccc(-c2cccnc2)n1 [Imatinib] |  |  |  | phospho-MAPK (Western) (PDGFRβ; downstream target of PDGFR): down-regulated; PDGFRβ autophosphorylation (Western) (PDGFRβ; phospho-PDGFRβ (Y1021)): effectively inhibited |
| CCCCCCOC(=O)[C@]1(O)C[C@@H]2O[C@@]1(C)n1c3ccccc3c3c4c(c5c6ccccc6n2c5c31)C(=O)NC4 [KT5720] |  | did not introduce significant cell index changes in either cell line | did not introduce significant cell index changes in either cell line |  |
| COC(=O)[C@@]1(OC)C[C@H]2O[C@]1(C)n1c3ccccc3c3c4c(c5c6ccccc6n2c5c31)C(=O)N(C)C4 [KT5823] |  | did not introduce significant cell index changes in either cell line | did not introduce significant cell index changes in either cell line |  |
| COc1ccc(-c2ccc3c(N4CCOCC4)nc(N4C[C@@H](C)O[C@@H](C)C4)nc3n2)cc1CO [KU0063794] | None of these inhibitors induced a TCRP similar to PF2341006 | triggered 10T1/2-tva-H1047R specific cell index drop | not present in the control cell line 10T1/2-tva |  |
| CS(=O)(=O)CCNCc1ccc(-c2ccc3ncnc(Nc4ccc(OCc5cccc(F)c5)c(Cl)c4)c3c2)o1 [Lapatinib] |  |  |  | IC50 (HCC827; Homo sapiens, HCC827, 96 h, read-out: IC50 (TCRP)): 38.8 nM |
| Cc1ccc(NC(=O)c2ccc(CN3CCN(C)CC3)cc2)cc1Nc1nc(-c2cccnc2)cs1 [Masitinib] | None of these inhibitors induced a TCRP similar to PF2341006 |  |  | TCRP (Cell Index response) (C6; C6): dose-dependent short-term increase (to a various degree) and long-term decrease in Cell Index; IC50 (C6; [6]): 487 nM; TCRP (Cell Index response, cell growth) (HCC827; HCC827, increasing concentrations): did not inhibit HCC827 cell growth |
| COc1cc(N2CCC(N3CCN(C)CC3)CC2)ccc1Nc1ncc(Cl)c(Nc2ccccc2S(=O)(=O)C(C)C)n1 [NVP-TAE684] |  |  |  | IC50 (SH-SY5Y; Homo sapiens): 10.4 nM |
| COc1cccc(-c2cc(=O)c3ccccc3o2)c1N [PD98059] | None of these inhibitors induced a TCRP similar to PF2341006 | did not introduce significant cell index changes in either cell line | did not introduce significant cell index changes in either cell line |  |
| C[C@@H](Oc1cc(-c2cnn(C3CCNCC3)c2)cnc1N)c1c(Cl)ccc(F)c1Cl [PF02341066, Crizotinib] |  |  |  | IC50 (H1993; Homo sapiens, NCI-H1993, 200 h): 3.23 nM; EC50 (H1993; Homo sapiens, NCI-H1993, H1993, short-term (10 hours post compound treatment) CI): 2 nM; IC50 (H1993): 1.87 nM |
| Oc1ccc(-c2nc(-c3ccncc3)c(-c3ccc(F)cc3)[nH]2)cc1 [SB202190] | None of these inhibitors induced a TCRP similar to PF2341006 | did not introduce significant cell index changes in either cell line | did not introduce significant cell index changes in either cell line |  |
| C[S+]([O-])c1ccc(-c2nc(-c3ccncc3)c(-c3ccc(F)cc3)[nH]2)cc1 (stereo not shown) [SB203580] | None of these inhibitors induced a TCRP similar to PF2341006 |  |  |  |
| CN[C@@H]1C[C@H]2O[C@@](C)([C@@H]1OC)n1c3ccccc3c3c4c(c5c6ccccc6n2c5c31)C(=O)NC4 [Staurosporine] |  | cell index decreases in both the control cell line and H1047R cell line | cell index decreases in both the control cell line and H1047R cell line |  |
| CCN(CC)CCNC(=O)c1c(C)[nH]c(/C=C2\C(=O)Nc3ccc(F)cc32)c1C [Sunitinib] |  |  |  | IC50 (C6; [6]): 42.2 nM |
| CO[C@H]1C[C@@H]2CC[C@@H](C)[C@@](O)(O2)C(=O)C(=O)N2CCCC[C@H]2C(=O)O[C@H]([C@H](C)C[C@@H]2CC[C@@H](OC(=O)C(C)(CO)CO)[C@H](OC)C2)CC(=O)[C@H](C)/C=C(\C)[C@@H](O)[C@@H](OC)C(=O)[C@H](C)C[C@H](C)/C=C/C=C/C=C/1C [Temsirolimus] |  | triggered 10T1/2-tva-H1047R specific cell index drop | not present in the control cell line 10T1/2-tva |  |
| N#CC(=C(/N)Sc1ccccc1N)/C(C#N)=C(\N)Sc1ccccc1N [U0126] | None of these inhibitors induced a TCRP similar to PF2341006 | did not introduce significant cell index changes in either cell line | did not introduce significant cell index changes in either cell line |  |
| C=CC(=O)Nc1cccc(Oc2nc(Nc3ccc(N4CCN(C)CC4)cc3OC)ncc2Cl)c1 [WZ4002] |  |  |  | IC50 (A431 [2]; A-431, A431, inhibitor 1 hour, then EGF 30 ng/ml, Normalized Cell Index at 30 minutes after EGF, estimated, read-out: IC50 (TCRP, ligand stimulated)): ~2000 nM; IC50 (H1975 [3]; NCI-H1975, H1975 (mutant L858R/T790M EGFR), 72 hours post compound treatment): 560 nM; IC50 (H1975 [1]; [5]): ~1250 nM; IC50 (A431 [4]; A-431, A431 (wild-type EGFR), Long-term (72 hours post compound treatment) CI): 4370 nM |
| CNC(=O)c1cc(Oc2ccc(NC(=O)Nc3ccc(Cl)c(C(F)(F)F)c3)cc2)ccn1 [sorafenib] |  |  | cell index decreases in both the control cell line and H1047R cell line | TCRP (Cell Index response) (C6; C6): dose-dependent short-term increase (to a various degree) and long-term decrease in Cell Index; IC50 (C6; C6, 96 h): 190 nM; TCRP (Cell Index response) (SK-MEL-28): did not affect CI changes that are significantly different from the negative control; TCRP (Cell Index response) (SH-SY5Y): None trigged a TCRP representative to that trigger by ALK inhibitors |
| CC[C@]1(O)C[C@H]2CN(CCc3c([nH]c4ccccc34)[C@@](C(=O)OC)(c3cc4c(cc3OC)N(C=O)[C@H]3[C@@](O)(C(=O)OC)[C@H](OC(C)=O)[C@]5(CC)C=CCN6CC[C@]43[C@@H]65)C2)C1 [vincristine] |  | cell index decreases in both the control cell line and H1047R cell line | cell index decreases in both the control cell line and H1047R cell line |  |
| AKT inhibitor IV | None of these inhibitors induced a TCRP similar to PF2341006 |  |  |  |
